≈ marks a conversion by molar mass, not a printed value.
Experiments:
Plasmodium falciparum [1] = experiment: Antimalarial activity against Plasmodium falciparum K1 by [3H]hypoxanthine incorporation assay; format: functional, organism-based
Plasmodium falciparum [2] = experiment: Antimalarial activity against Plasmodium falciparum NF54 by [3H]hypoxanthine incorporation assay; format: functional, organism-based
Plasmodium falciparum [3] = experiment: Antimalarial activity against Plasmodium falciparum NF54 by [3H]hypoxanthine incorporation assay in presence of 1:3 ratio of compound to 4-hydroxy-2,2,6,6,-tetramethyl-1-piperidinyloxy; format: functional
Plasmodium falciparum [4] = experiment: Antimalarial activity against Plasmodium falciparum NF54 by [3H]hypoxanthine incorporation assay in presence of 1:3 ratio of compound to 4-carboxy-2,2,6,6,-tetramethyl-1-piperidinyloxy; format: functional
Plasmodium falciparum [5] = experiment: Antimalarial activity against Plasmodium falciparum NF54 by [3H]hypoxanthine incorporation assay in presence 1:3 ratio of compound to carbaOZ277; format: functional
Plasmodium falciparum [6] = experiment: Antimalarial activity against Plasmodium falciparum NF54 by [3H]hypoxanthine incorporation assay in presence 1:1 ratio of compound to deoxyartemisinin; format: functional
Plasmodium falciparum [7] = experiment: Antimalarial activity against Plasmodium falciparum NF54 by [3H]hypoxanthine incorporation assay in presence of 2,2,6,6,-tetramethyl-1-piperidinyloxy; format: functional
Plasmodium falciparum [8] = experiment: Antimalarial activity against Plasmodium falciparum NF54 by [3H]hypoxanthine incorporation assay in presence of 4-hydroxy-2,2,6,6,-tetramethyl-1-piperidinyloxy; format: functional
Plasmodium falciparum [9] = experiment: Antimalarial activity against Plasmodium falciparum NF54 by [3H]hypoxanthine incorporation assay in presence of deoxyartemisinin; format: functional
Plasmodium falciparum [10] = experiment: Antimalarial activity against Plasmodium falciparum NF54 by [3H]hypoxanthine incorporation assay in presence of 3:1 ratio of compound to 2,2,6,6,-tetramethyl-1-piperidinyloxy; format: functional
Plasmodium falciparum [11] = experiment: Antimalarial activity against Plasmodium falciparum NF54 by [3H]hypoxanthine incorporation assay in presence of 1:3 ratio of compound to 4-oxo-2,2,6,6,-tetramethyl-1-piperidinyloxy; format: functional
Plasmodium falciparum [12] = experiment: Antimalarial activity against Plasmodium falciparum NF54 by [3H]hypoxanthine incorporation assay in presence of 1:1 ratio of compound to 4-amino-2,2,6,6,-tetramethyl-1-piperidinyloxy; format: functional
Plasmodium falciparum [13] = experiment: Antimalarial activity against Plasmodium falciparum NF54 by [3H]hypoxanthine incorporation assay in presence of 1:1 ratio of compound to 2,2,6,6,-tetramethyl-1-piperidinyloxy; format: functional
Plasmodium falciparum [14] = experiment: Antimalarial activity against Plasmodium falciparum NF54 by [3H]hypoxanthine incorporation assay in presence of 4-oxo-2,2,6,6,-tetramethyl-1-piperidinyloxy; format: functional
Plasmodium falciparum [15] = experiment: Antimalarial activity against Plasmodium falciparum NF54 by [3H]hypoxanthine incorporation assay in presence of carbaOZ277; format: functional
Plasmodium falciparum [16] = experiment: Antimalarial activity against Plasmodium falciparum NF54 by [3H]hypoxanthine incorporation assay in presence 3:1 ratio of compound to deoxyartemisinin; format: functional
Plasmodium falciparum [17] = experiment: Antimalarial activity against Plasmodium falciparum NF54 by [3H]hypoxanthine incorporation assay in presence of 1:3 ratio of compound to 4-amino-2,2,6,6,-tetramethyl-1-piperidinyloxy; format: functional
Plasmodium falciparum [18] = experiment: Antimalarial activity against Plasmodium falciparum NF54 by [3H]hypoxanthine incorporation assay in presence of 1:3 ratio of compound to 2,2,6,6,-tetramethyl-1-piperidinyloxy; format: functional
Plasmodium falciparum [19] = experiment: Antimalarial activity against Plasmodium falciparum NF54 by [3H]hypoxanthine incorporation assay in presence of 4-amino-2,2,6,6,-tetramethyl-1-piperidinyloxy; format: functional
Plasmodium falciparum [20] = experiment: Antimalarial activity against Plasmodium falciparum NF54 by [3H]hypoxanthine incorporation assay in presence of 1:1 ratio of compound to 4-hydroxy-2,2,6,6,-tetramethyl-1-piperidinyloxy; format: functional
Plasmodium falciparum [21] = experiment: Antimalarial activity against Plasmodium falciparum NF54 by [3H]hypoxanthine incorporation assay in presence of 3:1 ratio of compound to 4-hydroxy-2,2,6,6,-tetramethyl-1-piperidinyloxy; format: functional
Plasmodium falciparum [22] = experiment: Antimalarial activity against Plasmodium falciparum NF54 by [3H]hypoxanthine incorporation assay in presence of 1:1 ratio of compound to 4-carboxy-2,2,6,6,-tetramethyl-1-piperidinyloxy; format: functional
Plasmodium falciparum [23] = experiment: Antimalarial activity against Plasmodium falciparum NF54 by [3H]hypoxanthine incorporation assay in presence of 3:1 ratio of compound to 4-oxo-2,2,6,6,-tetramethyl-1-piperidinyloxy; format: functional
Plasmodium falciparum [24] = experiment: Antimalarial activity against Plasmodium falciparum NF54 by [3H]hypoxanthine incorporation assay in presence of 3:1 ratio of compound to 4-carboxy-2,2,6,6,-tetramethyl-1-piperidinyloxy; format: functional
Plasmodium falciparum [25] = experiment: Antimalarial activity against Plasmodium falciparum NF54 by [3H]hypoxanthine incorporation assay in presence of 1:1 ratio of compound to 4-oxo-2,2,6,6,-tetramethyl-1-piperidinyloxy; format: functional
Plasmodium falciparum [26] = experiment: Antimalarial activity against Plasmodium falciparum NF54 by [3H]hypoxanthine incorporation assay in presence of 4-carboxy-2,2,6,6,-tetramethyl-1-piperidinyloxy; format: functional
Plasmodium falciparum [27] = experiment: Antimalarial activity against Plasmodium falciparum NF54 by [3H]hypoxanthine incorporation assay in presence 1:1 ratio of compound to carbaOZ277; format: functional
Plasmodium falciparum [28] = experiment: Antimalarial activity against Plasmodium falciparum NF54 by [3H]hypoxanthine incorporation assay in presence of 3:1 ratio of compound to 4-amino-2,2,6,6,-tetramethyl-1-piperidinyloxy; format: functional
Plasmodium falciparum [29] = experiment: Antimalarial activity against Plasmodium falciparum NF54 by [3H]hypoxanthine incorporation assay in presence 3:1 ratio of compound to carbaOZ277; format: functional
Plasmodium falciparum [30] = experiment: Antimalarial activity against Plasmodium falciparum NF54 by [3H]hypoxanthine incorporation assay in presence 1:3 ratio of compound to deoxyartemisinin; format: functional
[31] = Plasmodium falciparum, K1, read-out: IC50

## CC1(C)CC(C(=O)O)CC(C)(C)N1[O]
Plasmodium falciparum [1]
  IC50: 0.00057 µg/mL (≈ 0.00285 µM)
Plasmodium falciparum [2]
  IC50: 0.00054 µg/mL (≈ 0.0027 µM)

## CC(C)(N)CNC(=O)CC1CC[C@]2(CC1)OC[C@]1(O2)C2CC3CC(C2)CC1C3 (stereo partly drawn)
Plasmodium falciparum [1]; [31]
  IC50: 12 µg/mL (≈ 30.7 µM)

## CC1(C)CC(=O)CC(C)(C)N1[O]
Plasmodium falciparum [1]; [31]
  IC50: 2.2 µg/mL (≈ 12.9 µM)

## C[C@@H]1CC[C@H]2[C@@H](C)C(=O)O[C@@H]3O[C@@]4(C)CC[C@@H]1[C@]32OO4 [ARTEMISININ]
Plasmodium falciparum [3]
  FIC50: 1.8
Plasmodium falciparum [4]
  FIC50: 1.4
Plasmodium falciparum [5]
  FIC50: 1.1
Plasmodium falciparum [6]
  FIC50: 1.1
Plasmodium falciparum [7]
  FIC50: 1.9
Plasmodium falciparum [8]
  FIC50: 2.8
Plasmodium falciparum [9]
  FIC50: 1.1
Plasmodium falciparum [10]
  FIC50: 2.2
Plasmodium falciparum [11]
  FIC50: 2.3
Plasmodium falciparum [12]
  FIC50: 1.9
Plasmodium falciparum [13]
  FIC50: 2.1
Plasmodium falciparum [14]
  FIC50: 2.3
Plasmodium falciparum [15]
  FIC50: 1.1
Plasmodium falciparum [16]
  FIC50: 1
Plasmodium falciparum [17]
  FIC50: 1.3
Plasmodium falciparum [18]
  FIC50: 1.3
Plasmodium falciparum [19]
  FIC50: 2
Plasmodium falciparum [20]
  FIC50: 4
Plasmodium falciparum [21]
  FIC50: 2.5
Plasmodium falciparum [22]
  FIC50: 1.4
Plasmodium falciparum [23]
  FIC50: 2
Plasmodium falciparum [24]
  FIC50: 1.2
Plasmodium falciparum [25]
  FIC50: 2.6
Plasmodium falciparum [26]
  FIC50: 1.3
Plasmodium falciparum [27]
  FIC50: 1.1
Plasmodium falciparum [28]
  FIC50: 2.8
Plasmodium falciparum [29]
  FIC50: 1.1
Plasmodium falciparum [30]
  FIC50: 1.2

## C[C@@H]1CC[C@H]2[C@@H](C)C(=O)O[C@@H]3O[C@@]4(C)CC[C@@H]1[C@]32O4 [DEOXYARTEMISININ]
Plasmodium falciparum [1]; [31]
  IC50: 34 µg/mL (≈ 128 µM)

## CC(C)(N)CNC(=O)C[C@H]1CC[C@]2(CC1)OO[C@]1(O2)C2CC3CC(C2)CC1C3 [OZ277]
Plasmodium falciparum [3]
  FIC50: 1.5
Plasmodium falciparum [4]
  FIC50: 1.3
Plasmodium falciparum [5]
  FIC50: 1.2
Plasmodium falciparum [6]
  FIC50: 1.3
Plasmodium falciparum [7]
  FIC50: 1.5
Plasmodium falciparum [8]
  FIC50: 1.3
Plasmodium falciparum [9]
  FIC50: 1.2
Plasmodium falciparum [10]
  FIC50: 1.2
Plasmodium falciparum [11]
  FIC50: 1.4
Plasmodium falciparum [12]
  FIC50: 2.4
Plasmodium falciparum [13]
  FIC50: 1.5
Plasmodium falciparum [14]
  FIC50: 1.3
Plasmodium falciparum [15]
  FIC50: 1.3
Plasmodium falciparum [16]
  FIC50: 1.2
Plasmodium falciparum [17]
  FIC50: 2.3
Plasmodium falciparum [18]
  FIC50: 1.8
Plasmodium falciparum [19]
  FIC50: 2.1
Plasmodium falciparum [20]
  FIC50: 1.3
Plasmodium falciparum [21]
  FIC50: 1.2
Plasmodium falciparum [22]
  FIC50: 1.3
Plasmodium falciparum [23]
  FIC50: 1.1
Plasmodium falciparum [24]
  FIC50: 1.2
Plasmodium falciparum [25]
  FIC50: 1.3
Plasmodium falciparum [26]
  FIC50: 1.3
Plasmodium falciparum [27]
  FIC50: 1.2
Plasmodium falciparum [28]
  FIC50: 1.7
Plasmodium falciparum [29]
  FIC50: 1.1
Plasmodium falciparum [30]
  FIC50: 1.4

## CC1(C)CC(N)CC(C)(C)N1[O] [TEMPAMINE]
Plasmodium falciparum [1]; [31]
  IC50: 16 µg/mL (≈ 93.4 µM)

## CC1(C)CC(O)CC(C)(C)N1[O] [TEMPOL]
Plasmodium falciparum [1]; [31]
  IC50: 19 µg/mL (≈ 110 µM)
